Each molecule was assayed against human P2X3 receptor (Homo sapiens (Human), UniProt P56373) (assay: P2X3 receptor inhibition, ATP-evoked Fluo-3 calcium fluorescence (FDSS 3000)). Conditions: C6BU-1 cell transfected with human P2X3 receptor gene; ATP-evoked Fluo-3 fluorescence.
Assay type: cell-based
How it was run: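 C6BU-1 cells stably transfected with human P2X3, loaded with 4 μM Fluo-3-AM for 1 h at 37 °C in HEPES buffer pH 7.5 with probenecid. Compound added 5 min before 40 nM ATP solution; fluorescence followed 3 min. IC50 from ratio of peak post-ATP to baseline fluorescence.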

Chain of human P2X3 receptor (P56373 whole entry): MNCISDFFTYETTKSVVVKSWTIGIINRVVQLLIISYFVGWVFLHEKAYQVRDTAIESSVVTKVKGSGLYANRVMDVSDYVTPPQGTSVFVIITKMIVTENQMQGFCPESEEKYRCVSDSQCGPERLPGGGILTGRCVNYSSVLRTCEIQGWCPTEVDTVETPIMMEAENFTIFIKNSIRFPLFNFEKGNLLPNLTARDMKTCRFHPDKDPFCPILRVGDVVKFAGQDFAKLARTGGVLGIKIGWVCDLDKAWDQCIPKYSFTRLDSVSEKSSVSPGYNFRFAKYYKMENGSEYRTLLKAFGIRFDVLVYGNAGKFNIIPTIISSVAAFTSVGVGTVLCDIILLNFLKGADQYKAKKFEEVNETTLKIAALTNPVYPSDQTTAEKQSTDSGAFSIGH

IC50 [nM] | Structure (SMILES)
14 | COCOc1ccccc1C1C(C(=O)C(C)C)=C(O)C(=O)N1c1ccc(-c2ccc(C)s2)cc1 (centres unmarked) [Compound I-264]
28 | COCc1ccccc1C1C(C(=O)C(C)C)=C(O)C(=O)N1c1ccc(-c2csc(C)c2)cc1 (centres unmarked) [Compound I-265]
25 | COCc1ccccc1C1C(C(=O)C(C)C)=C(O)C(=O)N1c1ccc(-c2ccc(C)s2)cc1 (centres unmarked) [Compound I-266]
14 | COCCOc1ncccc1C1C(C(=O)C(C)C)=C(O)C(=O)N1c1ccc(-c2ccc(C)s2)cc1 (centres unmarked) [Compound I-267]
32 | COCCOc1ncccc1C1C(C(=O)C(C)C)=C(O)C(=O)N1c1ccc(-c2csc(C)c2)cc1 (centres unmarked) [Compound I-268]
347 | COc1ccccc1C1C(C(=O)C(C)C)=C(O)C(=O)N1c1ccc2sccc2c1 (centres unmarked) [Compound I-269]
542 | COCCOc1ccccc1C1C(C(=O)C(C)C)=C(O)C(=O)N1c1ccc(-c2nc(C)no2)cc1 (centres unmarked) [Compound I-271]
491 | COCCOc1ccccc1C1C(C(=O)CC(C)C)=C(O)C(=O)N1c1ccc(-c2nc(C)no2)cc1 (centres unmarked) [Compound I-273]
172 | COCCOc1ccccc1C1C(C(=O)C(C)C)=C(O)C(=O)N1c1ccc(-c2noc(C)n2)cc1 (centres unmarked) [Compound I-275]
117 | COCCOc1ccccc1C1C(C(=O)CC(C)C)=C(O)C(=O)N1c1ccc(-c2noc(C)n2)cc1 (centres unmarked) [Compound I-276]
342 | Cc1nc(-c2ccc(N3C(=O)C(O)=C(C(=O)C(C)C)C3c3ccccc3OCCO)cc2)no1 (centres unmarked) [Compound I-277]
366 | Cc1nc(-c2ccc(N3C(=O)C(O)=C(C(=O)CC(C)C)C3c3ccccc3OCCO)cc2)no1 (centres unmarked) [Compound I-278]
16 | COc1ccccc1[C@@H]1C(C(=O)CC(C)C)=C(O)C(=O)N1c1ccc(-c2ccsc2)cc1 [Compound I-279]
477 | COc1ccccc1[C@H]1C(C(=O)CC(C)C)=C(O)C(=O)N1c1ccc(-c2ccsc2)cc1 [Compound I-280]
637 | COCc1ccccc1C1C(C(=O)C(C)C)=C(O)C(=O)N1c1ccc(I)cc1 (centres unmarked) [Compound I-281]
472 | COCc1ccccc1C1C(C(=O)C(C)C)=C(O)C(=O)N1c1ccc(-c2ccccc2)cc1 (centres unmarked) [Compound I-282]
144 | COCc1ccccc1C1C(C(=O)C(C)C)=C(O)C(=O)N1c1ccc(-c2ccccc2)s1 (centres unmarked) [Compound I-283]
300 | COc1cccc(C2C(C(=O)C(C)C)=C(O)C(=O)N2c2ccc(-c3ccsc3)cc2)c1 (centres unmarked) [Compound I-284]
648 | COc1ccc(C2C(C(=O)C(C)C)=C(O)C(=O)N2c2ccc(-c3ccsc3)cc2)cc1 (centres unmarked) [Compound I-285]
669 | COCCOc1cccc(C2C(C(=O)C(C)C)=C(O)C(=O)N2c2ccc(-c3ccsc3)cc2)c1 (centres unmarked) [Compound I-286]
36 | COc1ccc(C(=O)C2=C(O)C(=O)N(c3ccc(-c4ccsc4)cc3)C2C2COC(C)(C)OC2)cn1 (centres unmarked) [Compound I-288]
51 | CC(C)CC(=O)C1=C(O)C(=O)N(c2ccc(-c3ccsc3)cc2)C1c1ccccc1OC(F)F (centres unmarked) [Compound I-290]
130 | COc1ncccc1C1C(C(=O)CC(C)C)=C(O)C(=O)N1c1ccc(-c2ccsc2)cc1 (centres unmarked) [Compound I-291]
127 | CC(C)CC(=O)C1=C(O)C(=O)N(c2ccc(-c3ccsc3)cc2)C1c1ccccc1C(F)(F)F (centres unmarked) [Compound I-292]

IC50 [nM] | Structure (SMILES)
12 | CC(C)CC(=O)C1=C(O)C(=O)N(c2ccc(-c3ccsc3)cc2)C1c1ccccc1OC(C)C (centres unmarked) [Compound I-293]
220 | CC(C)C(=O)C1=C(O)C(=O)N(c2ccc(-c3ccon3)cc2)C1c1ccccc1OC(F)(F)F (centres unmarked) [Compound I-297]
269 | COCCOc1ccccc1C1C(C(=O)C(C)C)=C(O)C(=O)N1c1ccc(-c2ccon2)cc1 (centres unmarked) [Compound I-298]
8 | CC(C)Oc1ccccc1C1C(C(=O)C(C)C)=C(O)C(=O)N1c1ccc(-c2ccsc2)cc1 (centres unmarked) [Compound I-299]
114 | CC(C)C(=O)C1=C(O)C(=O)N(c2ccc(-c3ccsc3)cc2)C1c1ccccc1C(F)(F)F (centres unmarked) [Compound I-300]
18 | CC(C)C(=O)C1=C(O)C(=O)N(c2ccc(-c3ccsc3)cc2)C1c1ccccc1OC(F)F (centres unmarked) [Compound I-301]
34 | CC(C)C(=O)C1=C(O)C(=O)N(c2ccc(-c3ccsc3)cc2)C1c1ccccc1OC(F)(F)F (centres unmarked) [Compound I-302]
31 | COCc1ccccc1C1C(C(=O)CC(C)C)=C(O)C(=O)N1c1ccc(-c2ccc(C)s2)cc1 (centres unmarked) [Compound I-303]
21 | COCCOc1ccccc1C1C(C(=O)CC(C)C)=C(O)C(=O)N1c1ccc(-c2ccc(C)s2)cc1 (centres unmarked) [Compound I-304]
20 | COCOc1ccccc1C1C(C(=O)CC(C)C)=C(O)C(=O)N1c1ccc(-c2ccc(C)s2)cc1 (centres unmarked) [Compound I-305]
54 | CC(C)CC(=O)C1=C(O)C(=O)N(c2ccc(-c3ccon3)cc2)C1c1ccccc1OC(C)C (centres unmarked) [Compound I-306]
158 | CC(C)CC(=O)C1=C(O)C(=O)N(c2ccc(-c3ccon3)cc2)C1c1ccccc1OC(F)F (centres unmarked) [Compound I-307]
193 | CC(C)CC(=O)C1=C(O)C(=O)N(c2ccc(-c3ccon3)cc2)C1c1ccccc1OC(F)(F)F (centres unmarked) [Compound I-308]
182 | COCCOc1ccccc1C1C(C(=O)CC(C)C)=C(O)C(=O)N1c1ccc(-c2ccon2)cc1 (centres unmarked) [Compound I-309]
337 | COCc1ccccc1C1C(C(=O)C(C)C)=C(O)C(=O)N1c1ccc(-c2noc(C)n2)cc1 (centres unmarked) [Compound I-310]
121 | COCOc1ccccc1C1C(C(=O)C(C)C)=C(O)C(=O)N1c1ccc(-c2noc(C)n2)cc1 (centres unmarked) [Compound I-311]
54 | Cc1nc(-c2ccc(N3C(=O)C(O)=C(C(=O)C(C)C)C3c3ccccc3OC(C)C)cc2)no1 (centres unmarked) [Compound I-312]
320 | Cc1nc(-c2ccc(N3C(=O)C(O)=C(C(=O)C(C)C)C3c3ccccc3OC(F)F)cc2)no1 (centres unmarked) [Compound I-313]
329 | Cc1nc(-c2ccc(N3C(=O)C(O)=C(C(=O)C(C)C)C3c3ccccc3OC(F)(F)F)cc2)no1 (centres unmarked) [Compound I-314]
252 | COCc1ccccc1C1C(C(=O)CC(C)C)=C(O)C(=O)N1c1ccc(-c2noc(C)n2)cc1 (centres unmarked) [Compound I-315]
130 | COCOc1ccccc1C1C(C(=O)CC(C)C)=C(O)C(=O)N1c1ccc(-c2noc(C)n2)cc1 (centres unmarked) [Compound I-316]
73 | Cc1nc(-c2ccc(N3C(=O)C(O)=C(C(=O)CC(C)C)C3c3ccccc3OC(C)C)cc2)no1 (centres unmarked) [Compound I-317]
328 | Cc1nc(-c2ccc(N3C(=O)C(O)=C(C(=O)CC(C)C)C3c3ccccc3OC(F)F)cc2)no1 (centres unmarked) [Compound I-318]
222 | Cc1nc(-c2ccc(N3C(=O)C(O)=C(C(=O)CC(C)C)C3c3ccccc3OC(F)(F)F)cc2)no1 (centres unmarked) [Compound I-319]

IC50 [nM] | Structure (SMILES)
274 | COc1ncccc1C1C(C(=O)C(C)C)=C(O)C(=O)N1c1ccc(-c2csc(C)c2)cc1 (centres unmarked) [Compound I-320]
70 | Cc1cc(-c2ccc(N3C(=O)C(O)=C(C(=O)C(C)C)C3c3ccccc3OC(F)F)cc2)cs1 (centres unmarked) [Compound I-321]
102 | Cc1cc(-c2ccc(N3C(=O)C(O)=C(C(=O)C(C)C)C3c3ccccc3OC(F)(F)F)cc2)cs1 (centres unmarked) [Compound I-322]
310 | CC(C)CC(=O)C1=C(O)C(=O)N(c2ccc(-c3ccon3)cc2)C1c1ccccc1OCCO (centres unmarked) [Compound I-323]
109 | COCc1ncccc1C1C(C(=O)CC(C)C)=C(O)C(=O)N1c1ccc(-c2ccsc2)cc1 (centres unmarked) [Compound I-324]
18 | COc1cc(F)ccc1C1C(C(=O)C(C)C)=C(O)C(=O)N1c1ccc(-c2ccsc2)cc1 (centres unmarked) [Compound I-325]
27 | COc1cc(F)ccc1C1C(C(=O)CC(C)C)=C(O)C(=O)N1c1ccc(-c2ccsc2)cc1 (centres unmarked) [Compound I-326]
93 | COc1ccccc1C1C(C(=O)CC(C)C)=C(O)C(=O)N1c1ccc(-c2ccc(C)s2)cc1 (centres unmarked) [Compound I-327]
65 | Cc1ccc(-c2ccc(N3C(=O)C(O)=C(C(=O)CC(C)C)C3c3ccccc3OCCO)cc2)s1 (centres unmarked) [Compound I-328]
578 | COC1=C(C(=O)CC(C)C)C(c2ccccc2OC)N(c2ccc(-c3ccc(C)s3)cc2)C1=O (centres unmarked) [Compound I-329]
70 | CC(C)CC(=O)C1=C(O)C(=O)N(c2ccc(-c3ccsc3)cc2)C1c1ccccc1OC(F)(F)F (centres unmarked) [Compound I-330]
722 | COc1ccc(CC(=O)C2=C(O)C(=O)N(c3ccc(-c4noc(C)n4)cc3)C2C2CCCCC2)cc1 (centres unmarked) [Compound I-331]
281 | COc1ncccc1C1C(C(=O)C(C)C)=C(O)C(=O)N1c1ccc(-c2ccc(C)s2)cc1 (centres unmarked) [Compound I-332]
58 | Cc1ccc(-c2ccc(N3C(=O)C(O)=C(C(=O)C(C)C)C3c3ccccc3OC(F)F)cc2)s1 (centres unmarked) [Compound I-333]
78 | Cc1ccc(-c2ccc(N3C(=O)C(O)=C(C(=O)C(C)C)C3c3ccccc3OC(F)(F)F)cc2)s1 (centres unmarked) [Compound I-334]
351 | COc1ncccc1C1C(C(=O)CC(C)C)=C(O)C(=O)N1c1ccc(-c2ccc(C)s2)cc1 (centres unmarked) [Compound I-336]
103 | Cc1ccc(-c2ccc(N3C(=O)C(O)=C(C(=O)CC(C)C)C3c3ccccc3OC(F)F)cc2)s1 (centres unmarked) [Compound I-337]
147 | Cc1ccc(-c2ccc(N3C(=O)C(O)=C(C(=O)CC(C)C)C3c3ccccc3OC(F)(F)F)cc2)s1 (centres unmarked) [Compound I-338]
892 | COc1ccccc1C1C(C(=O)CC(C)C)=C(O)C(=O)N1c1ccc(-c2cc(C)no2)cc1 (centres unmarked) [Compound I-339]
336 | COc1ncccc1C1C(C(=O)CC(C)C)=C(O)C(=O)N1c1ccc(-c2ccoc2)cc1 (centres unmarked) [Compound I-340]
508 | Cc1cc(-c2ccc(N3C(=O)C(O)=C(C(=O)CC(C)C)C3c3ccccc3OC(F)F)cc2)on1 (centres unmarked) [Compound I-341]
67 | CC(C)CC(=O)C1=C(O)C(=O)N(c2ccc(-c3ccoc3)cc2)C1c1ccccc1OC(F)F (centres unmarked) [Compound I-342]
78 | CC(C)CC(=O)C1=C(O)C(=O)N(c2ccc(-c3ccoc3)cc2)C1c1ccccc1OC(F)(F)F (centres unmarked) [Compound I-343]

From patent publication US8575197B2, “Pyrolinone derivative and pharmaceutical composition comprising the same” (Shionogi & Co., Ltd., priority 2008, dated 2013)
